Laboratory results taken from the NIST ThermoML archive (doi:10.1007/s10765-014-1740-z).
± gives the expanded uncertainty stated by the source.

Details: Crystal; visual observation

## O=c1cc(-c2ccccc2)oc2cc(O)c(O)c(O)c12 [baicalein]
  Triple point temperature: 537 ± 10 K
